Data: patent US9056875B2, “Substituted pyrazolo[3′,4′:4,5]thieno[2,3-C]pyridazin-3-amine analogs as positive allosteric modulators of the muscarinic acetylcholine receptor M4” (Vanderbilt University, priority 2012, dated 2015)
Read-outs that look alike come from different tables or passages of the source.

Target: T1, mAChR rM4 (Rattus norvegicus, UniProt P08485)
T1 construct: expressed in transfected cells
T1 sequence (P08485 1-478): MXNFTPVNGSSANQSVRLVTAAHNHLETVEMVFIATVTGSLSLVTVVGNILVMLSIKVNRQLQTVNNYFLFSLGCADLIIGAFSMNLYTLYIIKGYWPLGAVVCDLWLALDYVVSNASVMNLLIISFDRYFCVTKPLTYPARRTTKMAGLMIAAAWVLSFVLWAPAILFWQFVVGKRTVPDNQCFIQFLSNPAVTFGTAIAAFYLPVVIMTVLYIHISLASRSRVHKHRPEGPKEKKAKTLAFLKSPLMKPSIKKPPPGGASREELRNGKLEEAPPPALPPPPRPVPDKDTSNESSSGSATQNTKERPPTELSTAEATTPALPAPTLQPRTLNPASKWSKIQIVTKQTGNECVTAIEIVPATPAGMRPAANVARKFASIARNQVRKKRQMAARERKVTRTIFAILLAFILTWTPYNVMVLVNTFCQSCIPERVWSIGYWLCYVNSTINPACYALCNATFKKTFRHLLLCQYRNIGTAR
Test: mAChR rM4 cell-based functional assay (calcium mobilization, potentiation of EC20 acetylcholine response)
Conditions: for Emax at 30 µM: %ACh maximum at 30 μM; for EC50: rM4-transfected CHO-K1 cells, positive allosteric modulation of EC20 ACh response
Source text: Chinese hamster ovary (CHO-K1) cells stably expressing rat (r)M1 were purchased from the American Type Culture Collection and cultured according to their indicated protocol. CHO cells stably expressing human (h)M2, hM3, and hM5 were described previously (Levey A I, et al., (1991) J Neurosci 11:3218-3226.); hM1 and hM4 cDNAs were purchased from Missouri S&T cDNA Resource; rM4 cDNA was provided by T. I. Bonner (National Institutes of Health, Bethesda, Md.). rM2 and rM3 were cloned from a rat brain cDNA library and sequence verified. hM1, rM2, rM3, hM4, and rM4 cDNAs were used to stably transfect CHO-K1 cells purchased from the American Type Culture Collection using Lipofectamine® 2000. To make stable rM2, hM2, rM3, hM4, and rM4 cell lines for use in calcium mobilization assays, these cells also were stably transfected with a chimeric G-protein (Gqi5) (provided by B. R. Conklin, University of California, San Francisco) using Lipofectamine® 2000. rM1, hM1, rM3, hM3, rM5, and hM5 cells were grown in Ham's F-12 medium containing 10% heat-inactivated fetal bovine serum (FBS), 20 mM HEPES, and 50 μg/mL G418 sulfate. rM2-Gqi5, hM2-Gqi5, and hM4-Gqi5 cells were grown in the same medium also containing 500 μg/mL hygromycin B. Stable rM4-Gqi5 cells were grown in DMEM containing 10% heat-inactivated FBS, 20 mM HEPES, 400 μg/mL G418 sulfate, and 500 μg/mL Hygromycin B.
For high throughput measurement of agonist-evoked increases in intracellular calcium, CHO-K1 cells stably expressing the target muscarinic receptor were plated in growth medium lacking G418 and hygromycin at 15,000 cells/20 μL/well in Greiner 384-well black-walled, tissue culture (TC)-treated, clear-bottom plates (VWR). Cells were incubated overnight at 37° C. and 5% CO2. The next day, cells were washed using an ELX 405 (BioTek) with four washes (80 μL) of assay buffer then aspirated to 20 μL. Next, 20 μL of 16 μM Fluo-4/acetoxymethyl ester (Invitrogen, Carlsbad, Calif.) prepared as a 2.3 mM stock in DMSO and mixed in a 1:1 ratio with 10% (w/v) Pluronic F-127 and diluted in assay buffer was added to the wells and the cell plates were incubated for […] at 37° C. and 5% CO2. Dye was removed by washing with the ELX 405 (four 80 μL washes of assay buffer) then aspirated to 20 μL. Compound master plates were formatted in an 11 point CRC format (1:3 dilutions) in 100% DMSO with a starting concentration of 10 mM using the BRAVO liquid handler (Agilent). Test compound CRCs were then transferred to daughter plates (240 nL) using the Echo acoustic plate reformatter (Labcyte, Sunnyvale, Calif.) and then diluted into assay buffer (40 μL) to a 2× stock using a Thermo Fisher Combi (Thermo Fisher Scientific, Waltham, Mass.).
Calcium flux was measured using the Functional Drug Screening System (FDSS) 6000 (Hamamatsu Corporation, Tokyo, Japan) as an increase in the fluorescent static ratio. Compounds were applied to cells (20 μL, 2×) using the automated system of the FDSS 6000 at 4 s into the 300 s protocol and the data were collected at 1 Hz. At 144 s into the 300 s protocol, 10 μL of an EC20 concentration of the muscarinic receptor agonist acetylcholine was added (5×), followed by the addition of 12 μL an EC80 concentration of acetylcholine at the 230 s time point (5×). Agonist activity was analyzed as a concentration-dependent increase in calcium mobilization upon compound addition. Positive allosteric modulator activity was analyzed as a concentration-dependent increase in the EC20 acetylcholine response. Antagonist activity was analyzed as a concentration-dependent decrease in the EC80 acetylcholine response. Concentration-response curves were generated using a four-parameter logistical equation in XLfit™ curve fitting software (IDBS, Bridgewater, N.J.) for Excel (Microsoft, Redmond, Wash.) or Prism (GraphPad Software, Inc., San Diego, Calif.). […]

Structure (SMILES)	Emax at 30 µM	EC50 (read-out: EC50)	EC50 (read-out: pEC50 (converted))
Cc1nnc2sc3c(NCC4CC4)nn(C)c3c2c1C [Compound 3, N-(cyclopropylmethyl)-1,7,8-trimethyl-1H-pyrazolo[3′,4′:4,5]thieno[2,3-c]pyridazin-3-amine]	46%	340 nM	–
Cc1nnc2sc3c(NCc4ccc(F)c(S(C)(=O)=O)c4)nn(C)c3c2c1C [Compound 5, N-(4-fluoro-3-(methylsulfonyl)benzyl)-1,7,8-trimethyl-1H-pyrazolo[3′,4′:4,5]thieno[2,3-c]pyridazin-3-amine]	54%	–	14.1 nM
Cc1cc(CNc2nn(C)c3c2sc2nnc(C)c(C)c23)no1 [Compound 12, 1,7,8-trimethyl-N-((5-methylisoxazol-3-yl)methyl)-1H-pyrazolo[3′,4′:4,5]thieno[2,3-c]pyridazin-3-amine]	55%	500 nM	–
Cc1nnc2sc3c(NCC4CCN(S(C)(=O)=O)CC4)nn(C)c3c2c1C [Compound 24, 1,7,8-trimethyl-N-((1-(methylsulfonyl)piperidin-4-yl)methyl)-1H-pyrazolo[3′,4′:4,5]thieno[2,3-c]pyridazin-3-amine]	61%	2500 nM	–
CC(=O)N1CCC(CNc2nn(C)c3c2sc2nnc(C)c(C)c23)CC1 [Compound 23, 1-(4-(((1,7,8-trimethyl-1H-pyrazolo[3′,4′:4,5]thieno[2,3-c]pyridazin-3-yl)amino)methyl)piperidin-1-yl)ethanone]	44%	1800 nM	–
Cc1nnc2sc3c(NC4CCNCC4)nn(C)c3c2c1C [Compound 18, 1,7,8-trimethyl-N-(piperidin-4-yl)-1H-pyrazolo[3′,4′:4,5]thieno[2,3-c]pyridazin-3-amine]	31%	5200 nM	–
Cc1nnc2sc3c(NC4CCOC4)nn(C)c3c2c1C (stereo not drawn) [Compound 8, 1,7,8-trimethyl-N-(tetrahydrofuran-3-yl)-1H-pyrazolo[3′,4′:4,5]thieno[2,3-c]pyridazin-3-amine]	55%	400 nM	–
Cc1nnc2sc3c(NCc4ccoc4)nn(C)c3c2c1C [Compound 7, N-(furan-3-ylmethyl)-1,7,8-trimethyl-1H-pyrazolo[3′,4′:4,5]thieno[2,3-c]pyridazin-3-amine]	60%	–	38.9 nM
Cc1nnc2sc3c(NC4CN(S(C)(=O)=O)C4)nn(C)c3c2c1C [Compound 15, 1,7,8-trimethyl-N-(1-(methylsulfonyl)azetidin-3-yl)-1H-pyrazolo[3′,4′:4,5]thieno[2,3-c]pyridazin-3-amine]	64%	63 nM	–
Cc1ncsc1CNc1nn(C)c2c1sc1nnc(C)c(C)c12 [Compound 11, 1,7,8-trimethyl-N-((4-methylthiazol-5-yl)methyl)-1H-pyrazolo[3′,4′:4,5]thieno[2,3-c]pyridazin-3-amine]	56%	55 nM	–
Cc1nnc2sc3c(NC4CN(C(=O)OC(C)(C)C)C4)nn(C)c3c2c1C [Compound 9, tert-butyl 3-((1,7,8-trimethyl-1H-pyrazolo[3′,4′:4,5]thieno[2,3-c]pyridazin-3-yl)amino)azetidine-1-carboxylate]	58%	–	25.1 nM
Cc1nnc2sc3c(NC4CCN(S(C)(=O)=O)CC4)nn(C)c3c2c1C [Compound 19, 1,7,8-trimethyl-N-(1-(methylsulfonyl)piperidin-4-yl)-1H-pyrazolo[3′,4′:4,5]thieno[2,3-c]pyridazin-3-amine]	58%	1100 nM	–
Cc1nnc2sc3c(NCC4CCNCC4)nn(C)c3c2c1C [Compound 22, 1,7,8-trimethyl-N-(piperidin-4-ylmethyl)-1H-pyrazolo[3′,4′:4,5]thieno[2,3-c]pyridazin-3-amine]	–	> 10000 nM	–
COc1ccc(CNc2nn(C)c3c2sc2nnc(C)c(C)c23)cc1 [Compound 1, N-(4-methoxybenzyl)-1,7,8-trimethyl-1H-pyrazolo[3′,4′:4,5]thieno[2,3-c]pyridazin-3-amine]	55%	48 nM	–
Cc1nnc2sc3c(NC4CCN(C(=O)OC(C)(C)C)CC4)nn(C)c3c2c1C [Compound 17, tert-butyl 4-((1,7,8-trimethyl-1H-pyrazolo[3′,4′:4,5]thieno[2,3-c]pyridazin-3-yl)amino)piperidine-1-carboxylate]	47%	210 nM	–
CC(=O)N1CC(Nc2nn(C)c3c2sc2nnc(C)c(C)c23)C1 [Compound 14, 1-(3-((1,7,8-trimethyl-1H-pyrazolo[3′,4′:4,5]thieno[2,3-c]pyridazin-3-yl)amino)azetidin-1-yl)ethanone]	69%	170 nM	–
Cc1nnc2sc3c(NCc4ccc5c(c4)OCCO5)nn(C)c3c2c1C [Compound 13, N-((2,3-dihydrobenzo[b][1,4]dioxin-6-yl)methyl)-1,7,8-trimethyl-1H-pyrazolo[3′,4′:4,5]thieno[2,3-c]pyridazin-3-amine]	55%	–	12.9 nM
Cc1nnc2sc3c(NCc4cccs4)nn(C)c3c2c1C [Compound 10, 1,7,8-trimethyl-N-(thiophen-2-ylmethyl)-1H-pyrazolo[3′,4′:4,5]thieno[2,3-c]pyridazin-3-amine]	53%	–	30.9 nM
Cc1nnc2sc3c(NC4CNC4)nn(C)c3c2c1C [Compound 16, N-(azetidin-3-yl)-1,7,8-trimethyl-1H-pyrazolo[3′,4′:4,5]thieno[2,3-c]pyridazin-3-amine]	51%	1400 nM	–
Cc1nnc2sc3c(NCc4ccco4)nn(C)c3c2c1C [Compound 4, N-(furan-2-ylmethyl)-1,7,8-trimethyl-1H-pyrazolo[3′,4′:4,5]thieno[2,3-c]pyridazin-3-amine]	50%	180 nM	–
CC(=O)N1CCC(Nc2nn(C)c3c2sc2nnc(C)c(C)c23)CC1 [Compound 20, 1-(4-((1,7,8-trimethyl-1H-pyrazolo[3′,4′:4,5]thieno[2,3-c]pyridazin-3-yl)amino)piperidin-1-yl)ethanone]	51%	1800 nM	–
Cc1nnc2sc3c(NCc4ccc(S(C)(=O)=O)cc4)nn(C)c3c2c1C [Compound 2, 1,7,8-trimethyl-N-(4-(methylsulfonyl)benzyl)-1H-pyrazolo[3′,4′:4,5]thieno[2,3-c]pyridazin-3-amine]	57%	130 nM	–
Cc1nnc2sc3c(NC4CCSC4)nn(C)c3c2c1C (stereo not drawn) [Compound 6, 1,7,8-trimethyl-N-(tetrahydrothiophen-3-yl)-1H-pyrazolo[3′,4′:4,5]thieno[2,3-c]pyridazin-3-amine]	56%	97 nM	–
